Source: patent US4413126A, “Preparation of isoquinoline derivatives useful as immune regulants” (Eli Lilly and Company, priority 1982, dated 1983)
Counter-ions that a name gives are not always drawn. Like-named read-outs stand apart in the source and are kept apart here.

Legend:
antibody production = experiment: Mouse Hemagglutinin assay, oral administration (pooled serum assay procedure); type: in vivo, mouse (Swiss); settings: P.O., nine daily doses; for minimal effective dose: Mus musculus, po, read-out: MED (minimum effective dose: lowest drug dose producing 75 percent or greater antibody suppression)
Experimental: Groups of five 20-gram, male, random-bred, Swiss mice received intravenous injections of 5×10^7 sheep red blood cells. The cells for these injections were prepared from lamb's blood (collected in Alsever's solution) by washing three times with 0.85 percent saline. Nine daily doses of each compound to be tested, solubilized in polyethylene glycol 400, were administered orally in 0.1 ml. doses, commencing three days prior to red blood cell injection. Several dose levels of each compound were employed, at 2-fold increments. A control group of mice, receiving a red blood cell injection and nine daily doses of vehicle instead of drug, was included. Six days after the antigen injections, the mice were bled by cardiac puncture and the blood from each 5-mouse group pooled. […] Following incubation of the trays for 3 hours at 37° C., the hemagglutination patterns were graded.

GVH reaction = experiment: Graft-Versus-Host (GVH) Reaction; type: in vivo, mouse (C57BL×C3H); settings: for minimal effective dose: 312 h, read-out: Endpoint Dose (p < 0.05): lowest drug dose significantly lowering the spleen/body weight ratio
Experimental: In this test, parental (C57BL) mouse spleen cells are injected into mice of an F1 hybrid strain (C57BL×C3H). […] As a consequence, the recipient's spleen becomes enlarged. Immunosuppression prevents or reduces this enlargement. Thus, spleen weights provide a measure of the GVH reaction and its reduction under immunosuppression.
A modification of Simonsen's original procedure (Ann. N.Y. Acad. Sci., 73, 834 (1958) was employed. Large crops of spleen cells were obtained, without the generally employed manual teasing of spleens, by using Waring blendors with the cutting blades reversed. Two six-second blending periods buffeted the spleens (batches of 25 C57BL spleens in 25-ml. saline) sufficiently to free the cells from the connective tissue. The latter was removed by filtration through several thicknesses of cheesecloth. Cell suspensions prepared in this fashion were standardized, by means of Levy-Hausser chamber counts, to contain 6×10^8 nucleated cells per ml. Groups of ten 16-18 gram C57BL×C3H mice were injected intraperitoneally with 1 ml. of the donor cell suspension. The compounds were administered either orally (P.O.) or subcutaneously (S.C.) in a vehicle composed of saline containing 0.125% methylcellulose and 0.2% emulphor, commencing 3 days prior to cell injection and continuing daily for 13 days. Control animals received only cells and vehicle. The spleens were removed and weighed 10 days following cell injection, and the mg. spleen/gram body weight was calculated.
The compounds were administered at several dose levels and the mean spleen/body weight ratio at each dose level was compared to the control group which received only the vehicle. The p values (by Student's two-tail t Test) were determined as compared to the control group. […] The results obtained in the graft-versus-host reaction with the compounds of this invention and standard compounds are summarized in Table III.

antibody titer = experiment: Individual Serum Assay Procedure (mouse hemagglutinin, oral); type: in vivo, mouse (Swiss); settings: read-out: Endpoint Dose (p < 0.05): lowest drug dose significantly lowering antibody titer
[1] = tested on: adjuvant-induced arthritis; experiment: Adjuvant-induced Arthritis Test in Rats: uninjected paw volume inflammation; type: in vivo, rat (Lewis-Wistar); settings: days 11 through 25
[2] = tested on: adjuvant-induced arthritis; experiment: Adjuvant-induced Arthritis Test in Rats: bone damage by X-ray; type: in vivo, rat (Lewis-Wistar); settings: X-ray day 25
[3] = P.O., ten daily doses, mouse, individual serum
[4] = po, P.O., daily for 13 days, mouse

O=c1c2cccc3cccc(c32)c2nc3cc(F)ccc3n12 [11-fluoro, 11-fluoro-7H-benzimidazo[2,1-a]benz[de]isoquinoline-7-one]
minimal effective dose (antibody production): 12.5 mg/kg

O=c1c2cccc3cccc(c32)c2nc3cc(C(F)(F)F)ccc3n12 [11-trifluoromethyl(p-toluenesulfonate salt)]
MED (minimum effective dose: lowest drug dose producing 75 percent or greater antibody suppression) (antibody production): 3.1 mg./kg. × 9

C[n+]1c2ccc(C(F)(F)F)cc2n2c(=O)c3cccc4cccc(c43)c21
minimal effective dose (antibody production): 100 mg/kg

CN(Cc1cnc2nc(N)nc(N)c2n1)c1ccc(C(=O)N[C@@H](CCC(=O)O)C(=O)O)cc1 [Methotrexate, reference compound]
minimal effective dose (GVH reaction; Mus musculus, po): 0.2 mg/kg

O=c1c2cccc3cccc(c32)c2nc3cc(Cl)ccc3n12 [11-chloro, 11-chloro-7H-benzimidazo[2,1-a]benz[de]isoquinoline-7-one]
minimal effective dose (GVH reaction; Mus musculus, po): 12.5 mg/kg | minimal effective dose (antibody titer; [3]): 0.2 mg/kg | MED (minimum effective dose: lowest drug dose producing 75 percent or greater antibody suppression) (antibody production): 0.4 mg./kg. × 9

Cn1cnc([N+](=O)[O-])c1Sc1ncnc2nc[nH]c12 [Azathioprine, reference compound]
Endpoint Dose (p < 0.05): lowest drug dose significantly lowering the spleen/body weight ratio (GVH reaction; P.O., daily for 13 days, mouse): 12.5 mg./kg. × 13 | minimal effective dose (antibody titer; [3]): 100 mg/kg | minimal effective dose (antibody production): 100 mg/kg

O=c1c2cccc3cccc(c32)c2nc3ccc(Br)cc3n12 [10-bromo, 10-bromo-7H-benzimidazo[2,1-a]benz[de]isoquinoline-7-one]
minimal effective dose (antibody production): 12.5 mg/kg

O=c1c2cccc3cccc(c32)c2nc3cc(Cl)ccc3n12 [11-chloro(p-toluenesulfonate salt)]
MED (minimum effective dose: lowest drug dose producing 75 percent or greater antibody suppression) (antibody production): 6.25 mg./kg. × 9

C[n+]1c2ccc(Cl)cc2n2c(=O)c3cccc4cccc(c43)c21
minimal effective dose (antibody production): > 100 mg/kg

C[n+]1c2cc(C(F)(F)F)ccc2n2c(=O)c3cccc4cccc(c43)c21 [13-methyl-7-oxo-11-(trifluoromethyl)-7H-benzimidazo[2,1-a]benz[de]isoquinolinium 4-methylbenzenesulfonate]
minimal effective dose (GVH reaction; Mus musculus, po): 12.5 mg/kg | minimal effective dose (antibody titer; Mus musculus): 12.5 mg/kg | minimal effective dose (antibody production): 1.6 mg/kg

CC(C(=O)O)c1cccc(Oc2ccccc2)c1 (stereo not shown) [Fenoprofen, reference compound]
% Inhibition of uninjected paw volume inflammation (AUC) ([1]; Test 1, 40 mg./kg. P.O. × 24): 44.0% | % Inhibition of uninjected paw volume inflammation (AUC) ([1]; Test 2, 40 mg./kg. P.O. × 24): 60.7%

C[C@]12CCC(=O)C=C1CC[C@@H]1[C@@H]2C(=O)C[C@@]2(C)[C@H]1CC[C@]2(O)C(=O)CO [Cortisone, reference compound]
minimal effective dose (GVH reaction; [4]): 3.1 mg/kg

C[n+]1c2cc(Cl)ccc2n2c(=O)c3cccc4cccc(c43)c21
minimal effective dose (antibody production): 100 mg/kg

O=c1c2cccc3cccc(c32)c2nc3cc(C(F)(F)F)ccc3n12 [11-trifluoromethyl, 11-(trifluoromethyl)-7H-benzimidazo[2,1-a]benz[de]isoquinoline-7-one]
minimal effective dose (GVH reaction; Mus musculus, po): 12.5 mg/kg | minimal effective dose (GVH reaction; sc, S.C., daily for 13 days, mouse): < 0.1 mg/kg | minimal effective dose (antibody titer; [3]): 0.4 mg/kg | MED (minimum effective dose: lowest drug dose producing 75 percent or greater antibody suppression) (antibody production): 0.2 mg./kg. × 9 | % Inhibition of uninjected paw volume inflammation (AUC) ([1]; Test 1, 100 mg./kg. P.O. × 24): 85.8% | % Inhibition of uninjected paw volume inflammation (AUC) ([1]; Test 2, 50 mg./kg. P.O. × 24): 55.9% | inhibition of bone damage, injected paws ([2]; Test 1 (100 mg./kg. P.O. × 24)): 68% | inhibition of bone damage, uninjected paws, compared to TB control group ([2]; Test 1 (100 mg./kg. P.O. × 24)): 94% | inhibition of bone damage, injected paws ([2]; Test 2 (50 mg./kg. P.O. × 24)): 66% | inhibition of bone damage, uninjected paws, compared to TB control group ([2]; Test 2 (50 mg./kg. P.O. × 24)): 88%

O=c1c2cccc3cccc(c32)c2nc3cc(Br)ccc3n12 [11-bromo, 11-bromo-7H-benzimidazo[2,1-a]benz[de]isoquinoline-7-one]
minimal effective dose (GVH reaction; [4]): < 25 mg/kg | minimal effective dose (antibody titer; [3]): 12.5 mg/kg | minimal effective dose (antibody production): 1.6 mg/kg

O=c1c2cccc3cccc(c32)c2nc3ccc(C(F)(F)F)cc3n12 [10-trifluoromethyl, 10-(trifluoromethyl)-7H-benzimidazo[2,1-a]benz[de]isoquinoline-7-one]
minimal effective dose (GVH reaction; [4]): < 25 mg/kg | minimal effective dose (antibody production): 25 mg/kg

O=P1(N(CCCl)CCCl)NCCCO1 (stereo not shown) [Cyclophosphamide, reference compound]
minimal effective dose (GVH reaction; [4]): 12.5 mg/kg

O=c1c2cccc3cccc(c32)c2nc3ccc(Cl)cc3n12 [10-chloro, 10-chloro-7H-benzimidazo[2,1-a]benz[de]isoquinoline-7-one]
minimal effective dose (antibody production): 3.1 mg/kg
